The values below come from patent US20060276464A1, “Diarylsulfone sulfonamides and use thereof” (Wyeth, priority 2005, published 2006).

The target in this test is T1, SFRP-1 (Homo sapiens, UniProt Q8N474).
T1 sequence (Q8N474 32-314): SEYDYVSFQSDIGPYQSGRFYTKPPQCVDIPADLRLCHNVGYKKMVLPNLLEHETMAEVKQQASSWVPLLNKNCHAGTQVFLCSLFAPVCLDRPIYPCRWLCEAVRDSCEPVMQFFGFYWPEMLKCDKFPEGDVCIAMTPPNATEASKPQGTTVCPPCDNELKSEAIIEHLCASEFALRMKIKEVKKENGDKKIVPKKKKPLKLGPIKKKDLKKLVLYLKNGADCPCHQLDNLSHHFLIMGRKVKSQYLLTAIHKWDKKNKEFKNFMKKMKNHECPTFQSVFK
Put plainly: Cell-based assay for in vitro measurement of SFRP-1/SARP2 antagonist activity (U2OS cells co-transfected with 16x TCF-tk-Luciferase reporter, Wnt and hSFRP-1).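 Further: U2OS cells co-transfected with a TCF-tk luciferase reporter, a Wnt vector, hSFRP-1 or empty vector and CMV-βgal, luciferase luminescence read in cell lysates alongside βgal activity.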 The note with it: U2OS. In general terms: A reporter such as luciferase makes a cellular process visible.

The mark [1] stands for this setting: read-out: Fold Induction with SFRP-1, Conc 30 μM, with SFRP-1, fold induction over SFRP-1 control, single dose.
[2] abbreviates: read-out: Fold Induction without SFRP-1, Conc 30 μM, without SFRP-1, single dose.
Where [3] appears, read: read-out: Fold Induction with SFRP-1, Conc 15 μM, with SFRP-1, fold induction over SFRP-1 control, single dose.
The mark [4] stands for this setting: read-out: Fold Induction without SFRP-1, Conc 15 μM, without SFRP-1, single dose.

SMILES strings stand for the structures. Read-outs that look alike come from different tables or passages of the source.

On to `Cc1ccc(S(=O)(=O)c2ccc(Cl)cc2)cc1S(=O)(=O)NCCc1ccccc1Cl` [Example 89, N-[2-(2-chlorophenyl)ethyl]-5-[(4-chlorophenyl)sulfonyl]-2-methylbenzenesulfonamide], for which the fold induction at 30 µM by setting is: under setting [1], 1.8; under setting [2], 0.5.

In the case of `COc1ccc(CCNS(=O)(=O)c2cc(S(=O)(=O)c3ccc(Cl)cc3)ccc2C)cc1OC` [Example 92, 5-[(4-chlorophenyl)sulfonyl]-N-[2-(3,4-dimethoxyphenyl)ethyl]-2-methylbenzenesulfonamide], the fold induction at 30 µM runs as follows: under setting [1], 1; under setting [2], 0.4.

On to `Cc1ccc(S(=O)(=O)c2ccc(C)c(S(=O)(=O)NCCc3ccccc3)c2)cc1` [Example 116, 2-methyl-5-[(4-methylphenyl)sulfonyl]-N-(2-phenylethyl)benzenesulfonamide], for which the fold induction at 30 µM under setting [1] was 0.9 and the fold induction at 30 µM under setting [2] was determined as 0.4.

`Cc1ccc(S(=O)(=O)c2ccc(C)c(S(=O)(=O)NCCc3ccccc3Cl)c2)cc1` [Example 117, N-[2-(2-chlorophenyl)ethyl]-2-methyl-5-[(4-methylphenyl)sulfonyl]benzenesulfonamide]: the fold induction at 30 µM worked out at 1 under setting [1] and 0.5 under setting [2].

With `COc1ccccc1CCNS(=O)(=O)c1cc(S(=O)(=O)c2ccc(C)cc2)ccc1C` [Example 118, N-[2-(2-methoxyphenyl)ethyl]-2-methyl-5-[(4-methylphenyl)sulfonyl]benzenesulfonamide], the fold induction at 30 µM by setting is: under setting [1], 1.3; under setting [2], 0.5.

Regarding `COc1cccc(CCNS(=O)(=O)c2cc(S(=O)(=O)c3ccc(C)cc3)ccc2C)c1` [Example 119, N-[2-(3-methoxyphenyl)ethyl]-2-methyl-5-[(4-methylphenyl)sulfonyl]benzenesulfonamide], the fold induction at 30 µM reads like this: under setting [1], 0.2; under setting [2], 0.3.

Take `COc1ccc(CCNS(=O)(=O)c2cc(S(=O)(=O)c3ccc(C)cc3)ccc2C)cc1OC` [Example 120, N-[2-(3,4-dimethoxyphenyl)ethyl]-2-methyl-5-[(4-methylphenyl)sulfonyl]benzenesulfonamide]: the fold induction at 30 µM under setting [1] was 1.2 and the fold induction at 30 µM under setting [2] is 0.5.

Take `Cc1ccc(S(=O)(=O)c2ccc(C)c(S(=O)(=O)NCCc3ccccc3F)c2)cc1` [Example 138, N-[2-(2-fluorophenyl)ethyl]-2-methyl-5-[(4-methylphenyl)sulfonyl]benzenesulfonamide]: the fold induction at 15 µM reads like this: under setting [3], 2.7; under setting [4], 0.9. Moreover, the fold induction at 30 µM by setting is: under setting [1], 1.1; under setting [2], 0.5.

Consider `CCc1ccc(S(=O)(=O)c2ccccc2)cc1S(=O)(=O)NCCc1ccccc1` [Example 141, 2-ethyl-N-(2-phenylethyl)-5-(phenylsulfonyl)benzenesulfonamide], for which the fold induction at 15 µM by setting is: under setting [3], 3.3; under setting [4], 1.

`CCc1ccc(S(=O)(=O)c2ccccc2)cc1S(=O)(=O)NCCc1ccccc1OC` [Example 142, 2-ethyl-N-[2-(2-methoxyphenyl)ethyl]-5-(phenylsulfonyl)benzenesulfonamide]: the fold induction at 15 µM by setting is: under setting [3], 3.2; under setting [4], 1.3.

Consider `CCc1ccc(S(=O)(=O)c2ccccc2)cc1S(=O)(=O)NCCc1cccc(OC)c1` [Example 143, 2-ethyl-N-[2-(3-methoxyphenyl)ethyl]-5-(phenylsulfonyl)benzenesulfonamide], for which the fold induction at 15 µM is, setting by setting: under setting [3], 3.3; under setting [4], 0.7.

Consider `CCc1ccc(S(=O)(=O)c2ccccc2)cc1S(=O)(=O)NCCc1ccc(OC)c(OC)c1` [Example 144, N-[2-(3,4-dimethoxyphenyl)ethyl]-2-ethyl-5-(phenylsulfonyl)benzenesulfonamide], for which the fold induction at 15 µM stood at 3 under setting [3] and 1.1 under setting [4].

As for `CCc1ccc(S(=O)(=O)c2ccccc2)cc1S(=O)(=O)NCCc1ccc(S(N)(=O)=O)cc1` [Example 145, N-{2-[4-(aminosulfonyl)phenyl]ethyl}-2-ethyl-5-(phenylsulfonyl)benzenesulfonamide], the fold induction at 15 µM under setting [3] amounted to 2.2 and the fold induction at 15 µM under setting [4] came out at 1.2.

In the case of `CCc1ccc(S(=O)(=O)c2ccccc2)cc1S(=O)(=O)NCCc1cccc(F)c1` [Example 146, 2-ethyl-N-[2-(3-fluorophenyl)ethyl]-5-(phenylsulfonyl)benzenesulfonamide], the fold induction at 15 µM is, setting by setting: under setting [3], 2.1; under setting [4], 1.3.

Consider `CCc1ccc(S(=O)(=O)c2ccccc2)cc1S(=O)(=O)NCCc1ccccc1F` [Example 147, 2-ethyl-N-[2-(2-fluorophenyl)ethyl]-5-(phenylsulfonyl)benzenesulfonamide], for which the fold induction at 15 µM was 3.2 under setting [3] and 1 under setting [4].

`CCOc1cc(CCNS(=O)(=O)c2cc(S(=O)(=O)c3ccccc3)ccc2CC)ccc1OC` [Example 148, N-[2-(3-ethoxy-4-methoxyphenyl)ethyl]-2-ethyl-5-(phenylsulfonyl)benzenesulfonamide]: the fold induction at 15 µM under setting [3] is 2.8 and the fold induction at 15 µM under setting [4] came out at 1.1.

In the case of `CCOc1ccc(CCNS(=O)(=O)c2cc(S(=O)(=O)c3ccccc3)ccc2CC)cc1OC` [Example 149, N-[2-(4-ethoxy-3-methoxyphenyl)ethyl]-2-ethyl-5-(phenylsulfonyl)benzenesulfonamide], the fold induction at 15 µM is, setting by setting: under setting [3], 3.1; under setting [4], 1.1.

Consider `COc1ccc(S(=O)(=O)c2ccccc2)cc1S(=O)(=O)NCCc1ccccc1` [Example 150, 2-methoxy-N-(2-phenylethyl)-5-(phenylsulfonyl)benzenesulfonamide], for which the fold induction at 15 µM worked out at 1.5 under setting [3] and 1.2 under setting [4].

For the molecule `COc1ccccc1CCNS(=O)(=O)c1cc(S(=O)(=O)c2ccccc2)ccc1OC` [Example 151, 2-methoxy-N-[2-(2-methoxyphenyl)ethyl]-5-(phenylsulfonyl)benzenesulfonamide], the fold induction at 15 µM is 1.4 under setting [3] and 1.1 under setting [4].

`COc1cccc(CCNS(=O)(=O)c2cc(S(=O)(=O)c3ccccc3)ccc2OC)c1` [Example 152, 2-methoxy-N-[2-(3-methoxyphenyl)ethyl]-5-(phenylsulfonyl)benzenesulfonamide]: the fold induction at 15 µM is 1.6 under setting [3] and 1.1 under setting [4].

`COc1ccc(CCNS(=O)(=O)c2cc(S(=O)(=O)c3ccccc3)ccc2OC)cc1OC` [Example 153, N-[2-(3,4-dimethoxyphenyl)ethyl]-2-methoxy-5-(phenylsulfonyl)benzenesulfonamide]: the fold induction at 15 µM stood at 1.5 under setting [3] and 1.1 under setting [4].

On to `COc1ccc(S(=O)(=O)c2ccccc2)cc1S(=O)(=O)NCCc1ccc(S(N)(=O)=O)cc1` [Example 154, N-{2-[4-(aminosulfonyl)phenyl]ethyl}-2-methoxy-5-(phenylsulfonyl)benzenesulfonamide], for which the fold induction at 15 µM by setting is: under setting [3], 1.4; under setting [4], 1.3.

In the case of `COc1ccc(S(=O)(=O)c2ccccc2)cc1S(=O)(=O)NCCc1cccc(F)c1` [Example 155, N-[2-(3-fluorophenyl)ethyl]-2-methoxy-5-(phenylsulfonyl)benzenesulfonamide], the fold induction at 15 µM worked out at 1.5 under setting [3] and 1.2 under setting [4].

Regarding `COc1ccc(S(=O)(=O)c2ccccc2)cc1S(=O)(=O)NCCc1ccccc1F` [Example 156, N-[2-(2-fluorophenyl)ethyl]-2-methoxy-5-(phenylsulfonyl)benzenesulfonamide], the fold induction at 15 µM stood at 1.4 under setting [3] and 1.4 under setting [4].

With `CCOc1cc(CCNS(=O)(=O)c2cc(S(=O)(=O)c3ccccc3)ccc2OC)ccc1OC` [Example 157, N-[2-(3-ethoxy-4-methoxyphenyl)ethyl]-2-methoxy-5-(phenylsulfonyl)benzenesulfonamide], the fold induction at 15 µM is, setting by setting: under setting [3], 1.5; under setting [4], 1.2.

In the case of `CCOc1ccc(CCNS(=O)(=O)c2cc(S(=O)(=O)c3ccccc3)ccc2OC)cc1OC` [Example 158, N-[2-(4-ethoxy-3-methoxyphenyl)ethyl]-2-methoxy-5-(phenylsulfonyl)benzenesulfonamide], the fold induction at 15 µM was found to be 1.4 under setting [3] and 1.1 under setting [4].

Consider `Cc1ccc(S(=O)(=O)c2ccc(F)cc2)cc1S(=O)(=O)NCCC(N)=O` [Example 159, N^3-({5-[(4-fluorophenyl)sulfonyl]-2-methylphenyl}sulfonyl)-beta-alaninamide], for which the fold induction at 15 µM runs as follows: under setting [3], 1.8; under setting [4], 0.9.

As to `COC(=O)CCNS(=O)(=O)c1cc(S(=O)(=O)c2ccc(F)cc2)ccc1C` [Example 160, methyl N-({5-[(4-fluorophenyl)sulfonyl]-2-methylphenyl}sulfonyl)-beta-alaninate], the fold induction at 15 µM is, setting by setting: under setting [3], 2.4; under setting [4], 0.9.

Consider `Cc1ccc(S(=O)(=O)c2ccc(F)cc2)cc1S(=O)(=O)NCCC#N` [Example 161, N-(2-cyanoethyl)-5-[(4-fluorophenyl)sulfonyl]-2-methylbenzenesulfonamide], for which the fold induction at 15 µM under setting [3] amounted to 2.7 and the fold induction at 15 µM under setting [4] came out at 1.
